# Test results as given in US9018244B2, “Benzopyran compounds, compositions and uses thereof” (Olema Pharmaceuticals, Inc., priority 2011, dated 2015).
# Entries after “also recorded” stand apart in the source; their conditions may differ.
# Experiments:
# [1] = test system: mouse uterus; test: Uterine wet weight in ovariectomized BALB/c mice; format: in vivo; conditions: for Uterine wet weight, agonist mode (without E2): q.d. three days, 100 mg/ml OP-1038 p.o. in 0.5% CMC; for Uterine wet weight, antagonist mode (+E2): three days, co-treated with 0.1 μg/ml E2 sc
# Protocol: FIG. 9. […] Uterine wet weight was measured at the end of three days after treating ovariectomized BALB/c mice q.d. with vehicle or one of the following treatments (10 mice per group): 50 mg/kg tamoxifen p.o. in 0.5% carboxymethylcellulose (CMC); 50 mg/kg fulvestrant sc in 5% ethanol; […] OP-1038 p.o. in 0.5% CMC. Half the animals in each group were co-treated with 0.1 μg/ml E2 sc in cottonseed oil-ethanol (95:5), or vehicle alone. Animal experiments were conducted at the University of California, San Francisco following institutional animal care and use committee protocols.
# [2] = test system: human MCF-7 breast cancer cells; test: E2-stimulated proliferation of MCF-7 breast cancer cells; format: cell-based; conditions: MCF-7 cells, 100 pM E2, 6-8 days
# Protocol: FIG. 11. […] A) OP-1074 had similar potency to model anti-estrogens in inhibiting E2-stimulated proliferation of breast cells in vitro. MCF-7 cells were treated with anti-estrogens in hormone-depleted medium for 6-8 days in the presence of 100 pM E2. Proliferation was measured using Cyquant fluorescent DNA-binding dye (Invitrogen, Grand Island, N.Y.). Results were from a single representative experiment and reported as the mean percent induction relative to E2 from triplicate treatments, with error bars representing SEM. […] Results were from a single representative experiment and reported as the mean percent induction relative to E2 from triplicate treatments, with error bars representing SEM. IC50's were calculated using the least squares fit method.
# Proliferation in MCF-7 was measured using a fluorescent DNA binding dye 6-8 days after treatment in triplicate with anti-estrogens in the presence of 100 pM E2 and as described in the legend to, and depicted in FIG. 11.
# [3] = biological target: T1, estrogen receptor alpha (ERα) (Homo sapiens, UniProt P03372); test: ERα expression by immunoblot after anti-estrogen treatment; format: cell-based; conditions: 100 nM anti-estrogen, 22-24 hours, serum-free medium; MCF-7 breast cells and ECC-1 endometrial cells
# T1 construct: endogenous in cells
# T1 sequence (P03372 1-595): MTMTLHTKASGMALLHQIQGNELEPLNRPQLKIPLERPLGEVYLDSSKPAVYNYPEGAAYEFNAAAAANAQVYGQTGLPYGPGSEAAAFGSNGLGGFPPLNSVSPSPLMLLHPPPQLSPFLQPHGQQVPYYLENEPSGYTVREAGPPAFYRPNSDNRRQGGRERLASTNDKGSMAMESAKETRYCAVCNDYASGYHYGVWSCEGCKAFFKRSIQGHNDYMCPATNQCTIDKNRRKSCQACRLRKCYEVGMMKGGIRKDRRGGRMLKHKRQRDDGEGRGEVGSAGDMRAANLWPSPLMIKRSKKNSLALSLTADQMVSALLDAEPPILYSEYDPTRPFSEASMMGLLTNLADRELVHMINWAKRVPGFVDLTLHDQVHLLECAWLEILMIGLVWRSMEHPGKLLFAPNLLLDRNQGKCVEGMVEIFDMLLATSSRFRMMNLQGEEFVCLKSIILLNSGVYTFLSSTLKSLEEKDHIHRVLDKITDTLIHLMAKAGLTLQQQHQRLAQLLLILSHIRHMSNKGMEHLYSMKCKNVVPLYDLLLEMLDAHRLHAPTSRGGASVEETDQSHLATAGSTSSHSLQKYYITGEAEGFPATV
# Protocol: FIG. 12. […] A) ERα levels in breast cells after treatment with OP-1074 compared to treatment with model anti-estrogens. MCF-7 cells were treated with 100 nM anti-estrogen for 24 hours in serum-free medium and protein extracts immunoblotted with an antibody to ERα (D12, Santa Cruz Biotechnology, Santa Cruz, Calif.). Image is from a single representative experiment and number on top denotes the mean percent ERα expression relative to vehicle from quadruplicate treatments. B) OP-1038 induces degradation of ERα in both MCF-7 breast cells and ECC-1 endometrial cells.
# ERα expression was detected in MCF-7 cell lysates treated with 100 nM anti-estrogens in serum-free medium for 22-24 hours and immunoblotted with an antibody specific to ERα as described in the legend to, and depicted in FIG. 12.
Structure (SMILES),"Uterine wet weight, agonist mode (without E2) [1]","Uterine wet weight, antagonist mode (+E2) [1]",Antagonism of E2-stimulated proliferation [2],Degradation of ERα [3]
"CC1=C(c2ccc(O)cc2)C(c2ccc(OCCN3CC[C@@H](C)C3)cc2)Oc2cc(O)ccc21 (stereo partly drawn) [OP-1038, 3-(4-hydroxyphenyl)-4-methyl-2-(4-{2-[(3R)-3-methylpyrrolidin-1-yl]ethoxy}phenyl)-2H-chromen-7-ol]",not significantly different from control or fulvestrant,not different from fulvestrant,improved potency; also recorded: potent antagonists,comparable to fulvestrant; also recorded: induce degradation
"CC1=C(c2ccc(O)cc2)[C@H](c2ccc(OCCN3CC[C@@H](C)C3)cc2)Oc2cc(O)ccc21 [OP-1074, (2S)-3-(4-hydroxyphenyl)-4-methyl-2-(4-{2-[(3R)-3-methylpyrrolidin-1-yl]ethoxy}phenyl)-2H-chromen-7-ol]",essentially pure anti-estrogen,complete anti-estrogen,improved potency; also recorded: potent antagonists,comparable to fulvestrant; also recorded: induce degradation
